# Test results taken from PubChem BioAssay AID624433 (The Scripps Research Institute Molecular Screening Center, 2012).
# Active and inactive are the calls of the source.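 The calls were made as follows: active = compounds whose fitted IC50 falls under 25000 nM; inactive = the rest.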
# Biological target: Serine/threonine-protein phosphatase 5 (Homo sapiens) (UniProt P53041)
# Experiment: PP5 inhibitor IC50 with OMFP, dose response, biochemical, fluorescence, round 5, 3.8 nM low dose (AID 624433)
# Conditions: purified PP5c, OMFP dephosphorylation
# Chain of Serine/threonine-protein phosphatase 5 (Homo sapiens) (P53041 whole entry, looked up): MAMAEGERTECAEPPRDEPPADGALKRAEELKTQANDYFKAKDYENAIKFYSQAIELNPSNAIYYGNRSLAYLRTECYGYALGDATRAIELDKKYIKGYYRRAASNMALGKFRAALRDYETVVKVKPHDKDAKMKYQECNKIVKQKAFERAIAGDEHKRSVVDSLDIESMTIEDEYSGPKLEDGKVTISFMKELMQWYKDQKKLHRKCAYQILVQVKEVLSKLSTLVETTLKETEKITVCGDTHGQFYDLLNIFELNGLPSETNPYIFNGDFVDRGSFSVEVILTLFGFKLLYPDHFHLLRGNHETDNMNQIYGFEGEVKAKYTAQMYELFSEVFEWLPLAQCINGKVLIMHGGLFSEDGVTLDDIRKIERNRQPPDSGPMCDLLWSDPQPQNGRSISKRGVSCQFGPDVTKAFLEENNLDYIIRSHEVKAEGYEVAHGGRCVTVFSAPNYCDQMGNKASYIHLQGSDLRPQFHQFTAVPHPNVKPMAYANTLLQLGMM
row,SMILES,IC50
1,O=C(O)c1n[nH]nc1-c1ccccc1-c1ccccc1,inactive
2,CCc1ccccc1-c1n[nH]nc1C(=O)O,19.9 µM
3,CC(C)Oc1ccccc1-c1n[nH]nc1C(=O)O,2.86 µM
4,Cc1ccccc1-c1n[nH]nc1C(=O)O,16.1 µM
5,O=C(O)c1n[nH]nc1-c1ccccn1,inactive
6,CC(C)c1ccccc1-c1n[nH]nc1C(=O)O,inactive
7,CCOc1ccccc1-c1n[nH]nc1C(=O)O,3.62 µM
